Source: article PMC10004634 (PLOS ONE, 2023)

Experiments:
Assay in all cases: biochemical
Set-up in all cases: KINOMEscan scanMAX competition binding, DNA-tagged kinases, qPCR read-out, percent control at 300 nM
EPHA1 = EPHA1 (Homo sapiens, UniProt P21709); conditions: read-out: Percent control / Acalabrutinib
CAMK2G = CAMK2G (Homo sapiens, UniProt Q13555); conditions: read-out: Percent control / Acalabrutinib
NDR2 = biological target: T1, NDR2 (Homo sapiens, UniProt Q9Y2H1); conditions: read-out: Percent control / Acalabrutinib
T1 construct: gene STK38L

CAMK1 = CAMK1 (Homo sapiens, UniProt Q14012); conditions: read-out: Percent control / Acalabrutinib
EIF2AK1 = EIF2AK1 (Homo sapiens, UniProt Q9BQI3); conditions: read-out: Percent control / Acalabrutinib
p38-gamma = biological target: T2, p38-gamma (Homo sapiens, UniProt P53778); conditions: read-out: Percent control / Acalabrutinib
T2 construct: gene MAPK12

CDK3 = CDK3 (Homo sapiens, UniProt Q00526); conditions: read-out: Percent control / Acalabrutinib
NEK5 = NEK5 (Homo sapiens, UniProt Q6P3R8); conditions: read-out: Percent control / Acalabrutinib
ASK1 = biological target: T3, ASK1 (Homo sapiens, UniProt Q99683); conditions: read-out: Percent control / Acalabrutinib
T3 construct: gene MAP3K5

ALK = ALK (Homo sapiens, UniProt Q9UM73); conditions: read-out: Percent control / Ibrutinib
EGFR(L747-T751del,Sins) = EGFR(L747-T751del,Sins) (Homo sapiens, UniProt P00533, DEL747-750/T751S); conditions: read-out: Percent control / Tirabrutinib
EGFR(G719C) = EGFR(G719C) (Homo sapiens, UniProt P00533, G719C); conditions: read-out: Percent control / Tirabrutinib
TLK2 = TLK2 (Homo sapiens, UniProt Q86UE8); conditions: read-out: Percent control / Tirabrutinib
YES = biological target: T4, YES (Homo sapiens, UniProt P07947); conditions: read-out: Percent control / Tirabrutinib
T4 construct: gene YES1

SNARK = biological target: T5, SNARK (Homo sapiens, UniProt Q9H093); conditions: read-out: Percent control / Zanubrutinib
T5 construct: gene NUAK2

LRRK2 = LRRK2 (Homo sapiens, UniProt Q5S007); conditions: read-out: Percent control / Zanubrutinib
HIPK2 = HIPK2 (Homo sapiens, UniProt Q9H2X6); conditions: read-out: Percent control / Zanubrutinib
CDKL5 = CDKL5 (Homo sapiens, UniProt O76039); conditions: read-out: Percent control / Zanubrutinib
TNK1 = TNK1 (Homo sapiens, UniProt Q13470); conditions: read-out: Percent control / Zanubrutinib
PCTK1 = biological target: T6, PCTK1 (Homo sapiens, UniProt Q00536); conditions: read-out: Percent control / Zanubrutinib
T6 construct: gene CDK16

CASK = CASK (Homo sapiens, UniProt O14936); conditions: read-out: Percent control / Zanubrutinib
STK39 = STK39 (Homo sapiens, UniProt Q9UEW8); conditions: read-out: Percent control / Zanubrutinib
PIK3CB = PIK3CB (Homo sapiens, UniProt P42338); conditions: read-out: Percent control / Zanubrutinib
Chain of PIK3CB (P42338 whole entry): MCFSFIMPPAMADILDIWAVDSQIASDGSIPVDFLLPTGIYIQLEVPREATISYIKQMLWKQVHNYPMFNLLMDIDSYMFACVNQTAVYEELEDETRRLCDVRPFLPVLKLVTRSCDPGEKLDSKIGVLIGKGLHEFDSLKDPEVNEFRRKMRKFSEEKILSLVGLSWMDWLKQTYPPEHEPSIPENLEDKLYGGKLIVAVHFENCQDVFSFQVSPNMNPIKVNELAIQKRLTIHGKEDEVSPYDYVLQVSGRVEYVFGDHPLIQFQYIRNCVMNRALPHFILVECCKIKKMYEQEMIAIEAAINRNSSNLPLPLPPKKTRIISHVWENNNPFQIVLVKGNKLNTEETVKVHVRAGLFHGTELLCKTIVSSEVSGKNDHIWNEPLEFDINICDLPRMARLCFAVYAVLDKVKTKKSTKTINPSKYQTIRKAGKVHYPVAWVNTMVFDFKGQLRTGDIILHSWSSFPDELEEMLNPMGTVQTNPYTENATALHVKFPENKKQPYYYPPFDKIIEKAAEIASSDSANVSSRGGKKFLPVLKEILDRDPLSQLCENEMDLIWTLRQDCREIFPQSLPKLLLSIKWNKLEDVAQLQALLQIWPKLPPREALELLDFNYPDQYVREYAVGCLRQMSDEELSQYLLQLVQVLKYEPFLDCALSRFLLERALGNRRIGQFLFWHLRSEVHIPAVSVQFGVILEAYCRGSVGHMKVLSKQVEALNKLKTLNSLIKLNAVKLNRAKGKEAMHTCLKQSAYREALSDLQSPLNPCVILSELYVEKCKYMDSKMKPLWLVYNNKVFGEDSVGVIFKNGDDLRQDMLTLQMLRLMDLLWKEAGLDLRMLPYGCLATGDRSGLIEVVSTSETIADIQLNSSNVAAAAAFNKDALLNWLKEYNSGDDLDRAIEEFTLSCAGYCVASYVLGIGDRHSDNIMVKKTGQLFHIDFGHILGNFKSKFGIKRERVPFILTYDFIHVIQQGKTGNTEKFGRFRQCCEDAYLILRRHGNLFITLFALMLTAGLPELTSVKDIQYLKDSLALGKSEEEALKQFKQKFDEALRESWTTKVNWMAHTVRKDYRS

T4 sequence (P07947 whole entry): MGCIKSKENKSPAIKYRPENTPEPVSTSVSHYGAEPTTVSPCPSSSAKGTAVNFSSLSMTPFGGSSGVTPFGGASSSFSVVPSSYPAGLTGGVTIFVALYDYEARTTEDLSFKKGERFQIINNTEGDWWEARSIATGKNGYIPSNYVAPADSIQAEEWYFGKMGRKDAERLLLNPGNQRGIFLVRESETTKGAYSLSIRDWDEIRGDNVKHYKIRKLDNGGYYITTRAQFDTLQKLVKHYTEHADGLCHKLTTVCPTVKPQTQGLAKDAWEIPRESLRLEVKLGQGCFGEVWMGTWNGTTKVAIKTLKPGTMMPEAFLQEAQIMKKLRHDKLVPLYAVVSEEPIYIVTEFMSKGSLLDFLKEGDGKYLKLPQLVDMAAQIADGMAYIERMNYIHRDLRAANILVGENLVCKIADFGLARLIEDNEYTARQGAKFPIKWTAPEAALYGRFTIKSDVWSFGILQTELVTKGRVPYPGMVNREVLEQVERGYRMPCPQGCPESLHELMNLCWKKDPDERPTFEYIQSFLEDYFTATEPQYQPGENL
Chain of TLK2 (Q86UE8 whole entry): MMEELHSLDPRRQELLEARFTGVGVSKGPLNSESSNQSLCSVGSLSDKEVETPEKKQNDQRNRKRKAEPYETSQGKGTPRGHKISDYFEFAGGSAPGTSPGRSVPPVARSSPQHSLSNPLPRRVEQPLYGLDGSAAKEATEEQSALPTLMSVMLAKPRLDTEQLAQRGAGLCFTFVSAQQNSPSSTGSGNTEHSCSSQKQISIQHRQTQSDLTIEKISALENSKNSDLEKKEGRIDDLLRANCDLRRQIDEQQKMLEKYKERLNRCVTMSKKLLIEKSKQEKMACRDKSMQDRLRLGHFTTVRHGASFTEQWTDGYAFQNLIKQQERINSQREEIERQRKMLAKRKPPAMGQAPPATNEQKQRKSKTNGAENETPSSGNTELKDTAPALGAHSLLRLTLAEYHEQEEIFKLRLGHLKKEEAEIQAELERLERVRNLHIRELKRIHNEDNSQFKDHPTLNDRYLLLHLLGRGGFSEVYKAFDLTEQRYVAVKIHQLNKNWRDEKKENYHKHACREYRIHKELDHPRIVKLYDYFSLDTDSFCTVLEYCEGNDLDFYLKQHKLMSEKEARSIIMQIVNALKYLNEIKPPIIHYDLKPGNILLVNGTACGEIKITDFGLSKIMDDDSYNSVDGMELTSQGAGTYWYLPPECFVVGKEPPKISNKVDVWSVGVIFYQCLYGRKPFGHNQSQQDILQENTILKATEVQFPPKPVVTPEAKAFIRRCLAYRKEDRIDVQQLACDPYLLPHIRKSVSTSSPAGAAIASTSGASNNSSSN
Chain of EIF2AK1 (Q9BQI3 whole entry): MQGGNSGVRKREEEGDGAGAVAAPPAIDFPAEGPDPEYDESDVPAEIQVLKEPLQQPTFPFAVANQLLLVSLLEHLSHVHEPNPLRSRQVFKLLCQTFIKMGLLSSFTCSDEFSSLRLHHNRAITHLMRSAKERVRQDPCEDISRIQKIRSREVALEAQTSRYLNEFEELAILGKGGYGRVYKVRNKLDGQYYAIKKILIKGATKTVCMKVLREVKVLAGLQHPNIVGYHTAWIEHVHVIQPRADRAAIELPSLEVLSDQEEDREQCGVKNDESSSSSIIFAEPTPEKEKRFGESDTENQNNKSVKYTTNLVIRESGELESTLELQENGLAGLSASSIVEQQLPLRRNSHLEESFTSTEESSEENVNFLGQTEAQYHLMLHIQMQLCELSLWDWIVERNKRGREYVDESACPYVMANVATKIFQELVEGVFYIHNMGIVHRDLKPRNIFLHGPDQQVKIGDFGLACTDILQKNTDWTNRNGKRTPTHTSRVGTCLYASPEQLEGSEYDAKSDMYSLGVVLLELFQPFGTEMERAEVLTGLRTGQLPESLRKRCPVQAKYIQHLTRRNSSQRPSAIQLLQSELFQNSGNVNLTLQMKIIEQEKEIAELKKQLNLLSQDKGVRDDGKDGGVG
Chain of EGFR(L747-T751del,Sins) (P00533 with tags, fused parts or gaps DEL747-750/T751S): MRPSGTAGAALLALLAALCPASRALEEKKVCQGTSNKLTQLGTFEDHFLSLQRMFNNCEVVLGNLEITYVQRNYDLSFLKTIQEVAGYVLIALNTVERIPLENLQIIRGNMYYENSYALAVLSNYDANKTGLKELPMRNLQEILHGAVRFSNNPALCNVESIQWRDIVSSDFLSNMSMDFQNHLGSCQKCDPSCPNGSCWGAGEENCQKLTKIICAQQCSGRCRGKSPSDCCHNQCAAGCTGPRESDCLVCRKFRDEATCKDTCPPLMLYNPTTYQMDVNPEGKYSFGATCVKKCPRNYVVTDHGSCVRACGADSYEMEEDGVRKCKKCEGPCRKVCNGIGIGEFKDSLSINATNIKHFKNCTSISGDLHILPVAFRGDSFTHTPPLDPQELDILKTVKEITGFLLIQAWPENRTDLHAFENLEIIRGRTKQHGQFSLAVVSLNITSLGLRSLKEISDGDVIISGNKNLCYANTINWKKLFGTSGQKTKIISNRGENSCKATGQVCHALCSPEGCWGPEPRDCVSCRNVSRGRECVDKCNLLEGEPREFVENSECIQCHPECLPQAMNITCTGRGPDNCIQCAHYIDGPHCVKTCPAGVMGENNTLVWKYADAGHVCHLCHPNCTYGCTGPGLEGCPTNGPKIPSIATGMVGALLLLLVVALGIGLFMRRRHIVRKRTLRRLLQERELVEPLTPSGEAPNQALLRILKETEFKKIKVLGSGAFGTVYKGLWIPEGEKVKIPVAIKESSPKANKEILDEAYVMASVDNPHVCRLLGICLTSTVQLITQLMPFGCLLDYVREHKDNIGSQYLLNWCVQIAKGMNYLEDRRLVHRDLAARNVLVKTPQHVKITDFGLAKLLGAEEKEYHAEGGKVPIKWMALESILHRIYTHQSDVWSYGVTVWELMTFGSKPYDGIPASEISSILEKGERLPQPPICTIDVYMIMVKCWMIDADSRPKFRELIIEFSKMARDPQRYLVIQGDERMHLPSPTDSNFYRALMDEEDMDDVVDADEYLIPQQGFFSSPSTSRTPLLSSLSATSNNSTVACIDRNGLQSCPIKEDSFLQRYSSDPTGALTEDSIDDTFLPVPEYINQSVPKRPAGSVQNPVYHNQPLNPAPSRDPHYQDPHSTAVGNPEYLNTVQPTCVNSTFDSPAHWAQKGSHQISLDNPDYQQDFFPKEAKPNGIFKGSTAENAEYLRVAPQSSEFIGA
T5 sequence (Q9H093 whole entry): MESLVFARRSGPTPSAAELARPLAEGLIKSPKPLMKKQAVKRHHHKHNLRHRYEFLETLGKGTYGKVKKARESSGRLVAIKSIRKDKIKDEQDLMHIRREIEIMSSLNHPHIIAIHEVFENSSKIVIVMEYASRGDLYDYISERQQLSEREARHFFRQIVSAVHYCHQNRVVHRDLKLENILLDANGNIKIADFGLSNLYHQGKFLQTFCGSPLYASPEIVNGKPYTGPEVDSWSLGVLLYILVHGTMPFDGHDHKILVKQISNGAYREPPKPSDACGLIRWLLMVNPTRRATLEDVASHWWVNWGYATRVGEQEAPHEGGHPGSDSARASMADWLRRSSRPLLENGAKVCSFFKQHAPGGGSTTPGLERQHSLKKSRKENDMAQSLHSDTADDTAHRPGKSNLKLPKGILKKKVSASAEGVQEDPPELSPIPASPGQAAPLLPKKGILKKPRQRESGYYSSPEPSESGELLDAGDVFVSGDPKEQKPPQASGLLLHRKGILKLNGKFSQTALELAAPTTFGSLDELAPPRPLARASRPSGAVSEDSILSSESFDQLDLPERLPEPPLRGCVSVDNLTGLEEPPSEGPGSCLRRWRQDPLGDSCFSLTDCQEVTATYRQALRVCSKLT

CC#CC(=O)N1CCC[C@H]1c1nc(-c2ccc(C(=O)Nc3ccccn3)cc2)c2c(N)nccn12 [Acalabrutinib]
remaining binding at 0.3 µM (EPHA1): 85% | remaining binding at 0.3 µM (CAMK2G): 95% | remaining binding at 0.3 µM (NDR2): 99% | remaining binding at 0.3 µM (CAMK1): 58% | remaining binding at 0.3 µM (EIF2AK1): 85% | remaining binding at 0.3 µM (p38-gamma): 75% | remaining binding at 0.3 µM (CDK3): 88% | remaining binding at 0.3 µM (NEK5): 96% | remaining binding at 0.3 µM (ASK1): 93%

C=CC(=O)N1CCC[C@@H](n2nc(-c3ccc(Oc4ccccc4)cc3)c3c(N)ncnc32)C1 [Ibrutinib]
remaining binding at 0.3 µM (ALK): 87%

CC#CC(=O)N1CC[C@@H](n2c(=O)n(-c3ccc(Oc4ccccc4)cc3)c3c(N)ncnc32)C1 [Tirabrutinib]
remaining binding at 0.3 µM (EGFR(L747-T751del,Sins)): 80% | remaining binding at 0.3 µM (EGFR(G719C)): 54% | remaining binding at 0.3 µM (TLK2): 90% | remaining binding at 0.3 µM (YES): 71%

C=CC(=O)N1CCC([C@@H]2CCNc3c(C(N)=O)c(-c4ccc(Oc5ccccc5)cc4)nn32)CC1 [Zanubrutinib]
remaining binding at 0.3 µM (SNARK): 97% | remaining binding at 0.3 µM (LRRK2): 64% | remaining binding at 0.3 µM (HIPK2): 87% | remaining binding at 0.3 µM (CDKL5): 100% | remaining binding at 0.3 µM (TNK1): 93% | remaining binding at 0.3 µM (PCTK1): 100% | remaining binding at 0.3 µM (CASK): 72% | remaining binding at 0.3 µM (STK39): 96% | remaining binding at 0.3 µM (PIK3CB): 98%
